Laboratory results: ChEMBL document CHEMBL5104094, “Chemistry, biosynthesis and biological activity of terpenoids and meroterpenoids in bacteria and fungi isolated from different marine habitats” (Eur J Med Chem, 2021)
pIC50: −log10 of the molar value.

System: HCT-116
Assay: Cytotoxicity against human HCT-116 cells assessed as cell growth inhibition
Format: functional, cell-based
Details: not given

| SMILES | pIC50 |
| --- | --- |
| C=C[C@]1(C)C=C2C(=O)C(O)=C3C(C)(C)CC[C@@H](O)[C@]3(C)[C@@]2(O)CC1 | 4.82 |
| C=C[C@]1(C)C=C2C(=O)C(O)=C3[C@](C)(CO)CC[C@@H](O)[C@]3(C)[C@@]2(O)CC1 | 4.28 |
| COC(=O)c1c(C)cc2c(c(C)c1=O)O[C@@]1(C)CC[C@H]3C(C)(C)OC(=O)C=C[C@]3(C)[C@@H]1C2 | 4.86 |
| COC(=O)c1c(C)cc2c(c(C)c1=O)O[C@@]1(C)CC[C@H]3C(C)(C)OC(=O)C[C@@H](O)[C@]3(C)[C@@H]1C2 | 4.88 |
| COC(=O)c1c(C)cc2c(c(C)c1=O)O[C@@]1(C)CC[C@H]3C(C)(C)OC(=O)C[C@@H](OC(C)=O)[C@]3(C)[C@@H]1C2 | 4.96 |
| C=C[C@]1(C)C=C2C(=O)C(O)=C3[C@](C)(CO)CC=C[C@]3(C)[C@@]2(O)CC1 | 4.82 |

System: HCT-116
Assay: Cytotoxicity against human HCT-116 cells assessed as cell growth inhibition by MTT assay
Format: functional, cell-based
Details: not given

| SMILES | pIC50 |
| --- | --- |
| CC(C)=CCn1c2ccc(Br)c(=O)c-2nc2ccccc21 | 7.54 |

System: HCT-116
Assay: Cytotoxicity against human HCT-116 cells assessed as cell growth inhibition incubated for 72 hrs by CellTiter 96 Aqueous One Solution Cell Proliferation assay
Format: functional, cell-based
Details: HCT-116, 72 h

| SMILES | pIC50 |
| --- | --- |
| C=C1CC[C@H](Cl)C(C)(C)[C@@H]1C[C@@]12OC(C)(C)[C@H](Cl)C[C@]1(Cl)C(=O)C1=C(C2=O)C(=[N+]=[N-])C(=O)C(C)=C1O | 6.30 |
| C=C1CC[C@H](Cl)C(C)(C)[C@@H]1C[C@@]12OC(C)(C)[C@H](Cl)C[C@@]1(Cl)C(=O)c1c(cc(O)c(C)c1O)C2=O | 5.52 |

System: HL-60
Assay: Inhibition of cell adhesion of human HL-60 cells to human LPS-stimulated HUVEC cells incubated for 4 hrs with HUVEC cells followed by MTT-labeled HL-60 cells addition measured after 40 mins by absorbance based microplate reader analysis
Format: functional
Details: not given

| SMILES | pIC50 |
| --- | --- |
| C=C(CO)[C@@]1(O)[C@@H](O)[C@@]2(C)[C@H](CCC[C@@H]2C)C[C@@H]1O | 4.81 |
| C=C1COC(OC)[C@@]12C[C@H]1C[C@H](O)C[C@H](C)[C@@]1(C)C2 (some centres undefined) | 4.94 |
| C=C(CO)[C@]1(O)[C@@H](O)[C@@]2(C)[C@H](CCC[C@@H]2C)C[C@@H]1O | 4.68 |

Target: Platelet-activating factor receptor (Homo sapiens, UniProt P25105)
Assay: Antagonist activity at PAFR (unknown origin)
Format: functional
Details: not given

Chain of Platelet-activating factor receptor (P25105 whole entry): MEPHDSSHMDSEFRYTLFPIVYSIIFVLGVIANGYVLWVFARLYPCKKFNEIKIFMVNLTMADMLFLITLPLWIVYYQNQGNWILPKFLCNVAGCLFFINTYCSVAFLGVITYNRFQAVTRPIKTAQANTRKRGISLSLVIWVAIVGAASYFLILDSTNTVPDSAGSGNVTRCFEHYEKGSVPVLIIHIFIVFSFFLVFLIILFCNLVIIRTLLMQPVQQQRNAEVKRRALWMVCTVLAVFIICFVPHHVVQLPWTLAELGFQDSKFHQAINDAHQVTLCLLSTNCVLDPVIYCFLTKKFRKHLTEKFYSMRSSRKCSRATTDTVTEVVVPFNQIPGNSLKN

| SMILES | pIC50 |
| --- | --- |
| C/C1=C\CC[C@]2(C)O[C@@H]3C[C@@H](C)[C@@](C)(CC1)C1=C3[C@](O)(OC1)[C@H]2O | 5.55 |
| C[C@@H]1[C@@H](O)C=C2C(=O)[C@H]3O[C@@]3(C)CCC[C@H]3O[C@@]3(C)C[C@]1(C)[C@@]2(C)O | 5.55 |
| C/C1=C\CC[C@@H]2O[C@H]2C(=O)C2=CC[C@@H](C)[C@@](C)(C[C@@H]1O)[C@@H]2C | 5.55 |
| C[C@@H]1CC=C2C(=O)[C@H]3O[C@]3(C)CC[C@@H]3O[C@@]3(C)CC[C@@]1(C)[C@@]2(C)O | 5.55 |
| C=C1C2=CC[C@@H](C)[C@@]1(C)CC/C(C)=C/CC[C@H]1O[C@@H]1C2=O | 5.60 |
| C=C1C2=CC[C@@H](C)[C@]1(C)CC[C@]1(C)O[C@H]1CC[C@@]1(C)O[C@@H]1C2=O | 5.55 |
| C[C@@H]1CC=C2C(=O)[C@H]3O[C@]3(C)CC[C@@H]3O[C@@]3(C)CC[C@@]1(C)[C@@H]2C | 5.55 |

System: MCF7
Assay: Cytotoxicity against human MCF7 cells assessed as cell growth inhibition by MTT assay
Format: functional, cell-based
Details: not given

| SMILES | pIC50 |
| --- | --- |
| C=C[C@]1(C)C=C2C(=O)C(O)=C3C(C)(C)CCC[C@]3(C)[C@@]2(O)CC1 | 4.44 |
| C=C[C@@]1(C)CCC2=C([C@H]1O)[C@H](O)[C@]1(O)OC[C@@]23CCCC(C)(C)[C@@]31O | < 4.15 |
| C=C[C@]1(C)C=C2C(=O)C(O)=C3C(C)(C)[C@@H](O)CC[C@]3(C)[C@@]2(O)[C@H](O)C1 | < 4.15 |
| C=C[C@]1(C)C=C2C(=O)C(O)=C3C(C)(C)[C@@H](O)CC[C@]3(C)[C@@]2(O)CC1 | 4.59 |
| C=C[C@@]1(C)CCC2=C([C@H](O)C(=O)[C@@]3(O)C(C)(C)CCC[C@]23C)[C@H]1O | < 4.15 |
